Each block holds one compound with its values, some of them ahead of it.
Columns and labels:
[1] = test system: HIV-1 IIIB chronically-infected HuT-78 cells; assay: Gag processing in virions from HIV-1 IIIB chronically-infected HuT-78 cells (western blot); format: cell-based; details: HuT-78/IIIB cells treated 43 hours; WDO-217 50, 25 μM; ritonavir 2.7 μM; SRR-SB3 75, 15 μM
Experimental: Recently, it has been shown that this new mechanism involves acetylation of the NCp7 region of Gag, thereby blocking Gag processing.
HIV-1 IIIB virions from persistently infected HuT-78 cells treated with different concentrations of compound were analysed by gel electrophoresis and immunoblotted with antibody against capsid.
Chronically-infected HIV-1 IIIB HuT-78 cells (HuT-78/IIIB) were washed four times with PBS to remove all free virions before treatment and 2 × 10^5 cells were resuspended in 1 ml compound-containing medium for 43 hours at 37°C. Then, virions were prepared from clarified supernatants (10 min at 300 g) by centrifugation at 36670 g for 2 hours at 4°C. Protein from lysed virions were separated by SDS-PAGE on a NuPage® Novex 4-12% Bis-Tris gel (Invitrogen) and transferred on a hydrophobic polyvinylidene difluoride (PVDF) membrane (Amersham Hybond™-P). The blot was blocked overnight at 4°C by 5% dry milk powder in Western blot wash solution (WBWS; PBS + 0.5% Tween 20), washed three times for 5 minutes with WBWS and incubated with a mouse anti-HIV-1 p24 antibody (1:5000) from Abcam. The blot was then washed three times for 5 minutes with WBWS and incubated for 1 h with a goat anti-mouse IgG-HRP secondary antibody (1:2500) from Santa Cruz Biotechnology. […]

HIV-2 ROD [2] = assay: Virucidal assay: virus pre-incubated with compound, diluted, titrated on MT-4 cells; details: virus incubated 1 h 37°C with 0.5%; no drug 5.4 × 10^6
HIV-1 virus particles [3] = assay: Virion-associated p24 of pre-treated, compound-cleared virus (ELISA); details: compound-cleared HIV-1 virus stock
HIV-1 IIIB [4] = assay: Virucidal assay: virus pre-incubated with compound, diluted, titrated on MT-4 cells; details: virus incubated 1 h 37°C with 0.5%; no drug 1 × 10^6
HIV-1 virus particles [5] = assay: Virion-associated genomic RNA of pre-treated virus (RT-qPCR, Northern blot); details: compound-cleared HIV-1 virus stock, RT-qPCR or Northern blot
MT-4 cells = assay: Cytotoxicity in mock-infected MT-4 cells (MTT); format: cell-based
HIV-2 ROD [6] = assay: MT-4/MTT-assay, protection against virus-induced cytopathic effect; format: cell-based; details: MT-4 cells, MTT, 5 days after infection
HIV-2 ROD [7] = assay: Anti-HIV activity in CEM cells (cytopathogenicity); format: cell-based
SIV Mac251 = assay: MT-4/MTT-assay, protection against virus-induced cytopathic effect; format: cell-based; details: MT-4 cells, MTT, 5 days after infection
HIV-1 IIIB [8] = assay: Anti-HIV activity in CEM cells (cytopathogenicity); format: cell-based
HIV-1 IIIB [9] = assay: MT-4/MTT-assay, protection against virus-induced cytopathic effect; format: cell-based; details: MT-4 cells, MTT, 5 days after infection
[10] = test system: human T-lymphocyte (CEM) cells; assay: Cytostatic activity, CEM cell proliferation; format: cell-based
NL4.3/AMD3100R = assay: microbe, parasite or virus in culture; format: cell-based, HIV-1; details: NL4.3/AMD3100R; EC50 for NL4.3 wild-type as 1

Compound: CC(C)c1nc(CN(C)C(=O)N[C@H](C(=O)N[C@@H](Cc2ccccc2)C[C@H](O)[C@H](Cc2ccccc2)NC(=O)OCc2cncs2)C(C)C)cs1 [ritonavir, reference compound]
accumulation of unprocessed Gag polyprotein in progeny virus [1]: did effectively increase

Compound: Triton X-100 [reference compound]
CCID50/ml HIV-2 ROD (HIV-2 ROD [2]): 0 CCID50/ml
virus-associated p24 core protein after treatment (HIV-1 virus particles [3]): no p24 core protein nor viral genomic RNA could be detected
CCID50/ml HIV-1 IIIB (HIV-1 IIIB [4]): 0 CCID50/ml
viral genomic RNA content after treatment (HIV-1 virus particles [5]): no p24 core protein nor viral genomic RNA could be detected

EC50 (HIV-2 ROD [6]): 5 ± 0.8 nM
EC50 (HIV-2 ROD [7]): 55 ± 20 nM
EC50 (SIV Mac251): 16 ± 7 nM
EC50 (HIV-1 IIIB [8]): 58 ± 30 nM
EC50 (HIV-1 IIIB [9]): 7 ± 1 nM
Compound: Cc1cn([C@H]2C[C@H](N=[N+]=[N-])[C@@H](CO)O2)c(=O)[nH]c1=O [AZT, reference compound]
CC50 (MT-4 cells): > 35 µM
CC50 [10]: > 125 µM

Compound: c1cc(CN2CCCNCCNCCCNCC2)ccc1CN1CCCNCCNCCCNCC1 [AMD3100, reference compound]
Fold resistance of mutant strain towards the respective inhibitor (NL4.3/AMD3100R): (>100)

Source: paper PMC3542062, “A phenyl-thiadiazolylidene-amine derivative ejects zinc from retroviral nucleocapsid zinc fingers and inactivates HIV virions” (Retrovirology, 2012)
